Data taken from patent US4314061A, “Certain 3,6-bis-(heteroaminoalkoxy) acridines” (priority 1980, dated 1982).

Experiments:
tumor = details: experimental studies in animals; cited from earlier work
[1] = test system: malignant melanoma, acute leukemia, lung cancer, breast cancer; details: early clinical trials; cited from earlier work
normal mouse bone marrow = experiment: Effect on normal mouse bone marrow; format: in vivo, C57 BL6 male mice; details: 24 hours after treatment; test compound oral, Cytoxan intraperitoneal
Procedure: The effect of drugs on normal mouse bone marrow is evaluated by determining total cell counts of femurs and by the ability of surviving cells to form colonies in semi-solid medium. The test compound is administered orally and the reference drug Cytoxan is administered intraperitoneally to C57 BL6 male mice. One femur from each of three mice per dose level is assayed 24 hours after treatment. Counts of nucleated cells are performed on pooled marrow suspensions and the clonogenic assay is performed by plating 50,000 cells in one ml. of culture medium in each of four culture dishes. The medium to support bone marrow progenitor cell growth is McCoy's medium supplemented with 0.9% methocel, 1.8% human serum albumin, 10% bovine fetal serum and 10% "conditioned" L-cell medium. Cultures are incubated at 37° C. in a humidified atmosphere and colonies are counted at seven days.

B16 melanoma = experiment: Surgical-adjuvant antitumor activity against B16 melanoma implanted subcutaneously in footpads; format: in vivo, BDF1 mice; details: 100 mg/kg intraperitoneal
Procedure: BDF1 mice were inoculated subcutaneously in the right hind footpad with 5×10^5 viable B16 melanoma cells, on day zero. The drug was prepared in normal saline and administered by the oral route once daily, on days 1, 7, and 13 following tumor implantation, at doses range from 50 mg/kg to 400 mg/kg. A control group of mice received a saline placebo instead of drug, and another group of tumor bearing mice received the positive control drug cyclophosphamide, at 100 mg/kg, by intraperitoneal injection. On the 21st day after tumor implantation, the mice were anesthesized with Nembutal, and the tumor bearing feet were surgically amputated above the ankle joint. The surgical incision was swabbed with alcohol and sealed with stainless steel wound clips. The tumor bearing feet were individually weighed and the average weight of a normal foot (determined by weighing amputated feet from non-tumor bearing mice of the same sex, age, and body weight) was subtracted to obtain the weight of tumor tissue in the amputated feet. Mice were then observed for deaths until the 90th day after tumor implantation. […]
^1 BDF1 male mice inocluated with 5 × 10^5 B16 melanom
cells subcutaneously in footpad on day zero;
(§1) 3,6bis(2-diethylaminoethoxy)acridine trihydrochloride administered orally
(§2) and Cyclophosphamide intraperitoneally, on days 1, 7, and 13 following
(§3) ^2 Average tumor weight determined after surgical amputation of tumor
bearing foot on day 21 following tumor implantation.

B-16 melanoma = experiment: Potentiation of cyclophosphamide (Cytoxan) activity against B16 melanoma in mice; format: in vivo, BDF1 mice
Procedure: BDF1 male mice were inoculated subcutaneously with 0.25 ml. of a 10% B-16 melanoma homogenate. Cyclophosphamide was administered intraperitoneally at 80 mg./kg. the second day following the day of tumor implantation. Test compounds were given intraperitoneally on days +6, +8 and +10 relative to tumor implantation. […]
BDF1 male mice inoculated subcutaneously with 0.25 ml. of a 10% tumo
homogenate on day 0. Drugs were administered intraperitoneally;
cyclophosphoamide on day 2, 3,6bis(2-diethylaminoethoxy)acridine
trihydrochloride on days 6, 8 and 10.
^1 Number of survivors over number of mice treated.

[2] = test system: Rauscher Virus-Induced Leukemia; experiment: Inhibition of splenomegaly in mice with Rauscher virus-induced leukemia; format: in vivo, Balb/c mice
Lewis lung carcinoma = experiment: Surgical-adjuvant antitumor activity against Lewis lung carcinoma implanted subcutaneously in footpads; format: in vivo, BDF1 mice; details: 100 mg/kg intraperitoneal
Procedure: BDF1 mice were inoculated subcutaneously in the right hind footpad with 5×10^5 viable Lewis Lung carcinoma cells, on day zero. […] A control group of mice received a saline placebo instead of drug, and another group of tumor bearing mice received the positive control drug cyclophosphamide, at 100 mg/kg, administered by intraperitoneal injection. On the 11th day after tumor implantation, the mice were anesthesized with Nembutal, and the tumor bearing feet surgically amputated above the ankle joint. The surgical incision was swabbed with alcohol and sealed with stainless steel wound clips. The tumor bearing feet were individually weighed and the average weight of a normal foot (determined by weighing amputated feet from non-tumor bearing mice of the same age, sex and body weight) was subtracted to obtain the weight of tumor tissue in the amputated foot. Mice were then observed for deaths until the 90th day after tumor implantation. […]
^1 BDF1 male mice inoculated subcutaneously in footpad with 5
× 10^5 Lewis lung tumor cells on day zero;
as §1, §2, §3
bearing foot on day 11 following tumor implantation.

[3] = cyclophosphamide 80 mg/kg i.p. alone
[4] = cyclophosphamide 80 mg/kg i.p. alone, day 26

## c1ccc([C@H]2CN3CCSC3=N2)cc1 [levamisole]
tumor
  Stimulation of cellular immunity and tumor regression, in words: shown to stimulate cellular immunity and to produce tumor regression
[1]
  Clinical antitumor success, in words: Some successes have been claimed

## O=P1(N(CCCl)CCCl)NCCCO1 (stereo not shown) [Cyclophosphamide, reference compound]
Normal mouse bone marrow
  Effect on total nucleated cell count of femur marrow, in words: depressed the cell count significantly
B16 melanoma
  Median survival time: > 90.0 days
B16 melanoma; Day +21
  Average tumor weight: 202 mg
B16 melanoma; Day +21, * significant (≥58%)
  Average % of tumor weight inhibition: 67%
B16 melanoma; at +90 days, ** significant
  No. Survivors/No. Treated: 7/12
B16 melanoma; + significant (≥25%)
  % Increased life-span: > 70%
B-16 melanoma; [3]
  ILS (Percent increase in life span over control): 11%
  MST (Median Survival Time): 25.0 days
B-16 melanoma; cyclophosphamide 80 mg/kg i.p. alone, day 21
  Number of survivors over number of mice treated: 8/8
B-16 melanoma; cyclophosphamide 80 mg/kg i.p. alone, day 21, p <0.05 vs untreated
  Average tumor weight: 1237 mg
B-16 melanoma; [4]
  Average tumor weight: 7458 mg
  Number of survivors over number of mice treated: 3/8
B-16 melanoma; monotherapy, i.p., day +26
  50% inhibition in local tumor growth, in words: failed to do so
[2]; 100 mg/kg
  % Reduction in splenomegaly: 106%
[2]; general statement, no dose, relative to placebo treated RLV-infected mice
  reduction in splenomegaly: ≥ 50%
Lewis lung carcinoma
  Median survival time: > 90.0 days
Lewis lung carcinoma; Day +11
  Average tumor weight: 93 mg
Lewis lung carcinoma; Day +11, * significant (≥58%)
  Average % of tumor weight inhibition: 75%
Lewis lung carcinoma; at +90 days, ** p < .05
  No. Survivors/No. Treated: 10/12
Lewis lung carcinoma; + significant (≥25%)
  % Increased life-span: > 200%
